Test system: Ascaris challenge in allergic sheep
Experiment: Allergic sheep model: EAR, LAR and AHR response to Ascaris challenge
Format: in vivo
Conditions: for AHR (%) inhibition / EAR (%) Inhibition / LAR (%) inhibition: single dose 30 minutes before Ascaris challenge
Description: The allergic sheep model was used to test the effect of inhaled montelukast acid against early asthmatic response (EAR), late asthmatic response (LAR) and airway hyper-reactivity (AHR) response to Ascaris challenge in allergic sheep. The compound was administered directly into the lungs using the Spinhaler DPI that was attached directly to an indwelling endotracheal tube. Capsules used in the Spinhaler contained a micronized blend of 20% drug/80% lactose, corresponding to approx. 5 mg of the active compound. The compound was administered as a single dose 30 minutes before Ascaris challenge. To optimize delivery, each Spinhaler actuation was synchronized with a series of aspiratory cycles.
Doses for inhalation were selected based on total IV doses administered in sheep studies that had been conducted. Administration of 3 or 9 capsules should achieve a total inhaled dose of approximately 0.1 mg/kg and 0.3 mg/kg, respectively. The purported dose delivered is an estimate based on an experimentally determined fine particle fraction efficiency of 30%. Plasma drug levels were measured at various time points throughout the study.
Initial experiments (n=2) were performed with 0.1 mg/kg of montelukast acid. […] The second set of experiments (n=4) was performed with 0.3 mg/kg of montelukast acid.

[1] = Approx. 0.1 mg/kg (3 capsules) inhaled via Spinhaler, n=2
[2] = Approx. 0.3 mg/kg (9 capsules) inhaled via Spinhaler, n=4

In the case of `CC(C)(O)c1ccccc1CC[C@@H](SCC1(CC(=O)O)CC1)c1cccc(/C=C/c2ccc3ccc(Cl)cc3n2)c1` [Montelukast Acid, montelukast acid], the “inhibition of EAR, LAR and AHR (in words)” value (0.1 mg/kg inhaled, n=2) is reported as “partial inhibition of the LAR and AHR but not the EAR”, the “inhibition of EAR, LAR and AHR (in words)” value (0.3 mg/kg inhaled, n=4) is reported as “Marked inhibition of all three phases of the response” and the “AHR (%) inhibition” value [1] is reported as 60%. The “EAR (%) Inhibition” value [1] was 7%, the “LAR (%) inhibition” value [1] was 42% and the “AHR (%) inhibition” value [2] was 76%. For the same compound, the “EAR (%) Inhibition” value [2] was 47% and the “LAR (%) inhibition” value [2] was 79%.

From US20100210611A1, “COMBINATION THERAPY” (priority 2007, published 2010)
